According to PMC8949187, “Study of Structure–Activity Relationships of the Marine Alkaloid Fascaplysin and Its Derivatives as Potent Anticancer Agents” (Marine Drugs, 2022):

How the values were obtained:
LNCaP cells = experiment: MTT assay, LNCaP cells; format: cell-based, human; settings: prostate cancer cells, 48 h of treatment, mean ± SD
Method: (§1) The human prostate cancer cell lines PC-3, DU145, 22Rv1 and LNCaP, as well as human prostate non-cancer cell line PNT2 were purchased from ATCC (Manassas, VA, USA). HEK 293T (human embryonic kidney cells) and MRC-9 (human fibroblast cells) cell lines were purchased from ECACC (Salisbury, UK). […] Authentication of all cell lines used was recently performed by a commercial service (Multiplexion GmbH, Heidelberg, Germany).
(§2) Cells were cultured as monolayers at 37 °C in a humidified atmosphere with 5% (v/v) CO2 in the correspondent culture medium: 10% FBS/RPMI medium (RPMI medium supplemented with Glutamax^TM-I (gibco® Life technologies^TM, Paisley, UK) containing 10% fetal bovine serum (FBS, gibco® Life technologies^TM) and 1% penicillin/streptomycin (Invitrogen)) for PNT2, LNCaP, 22Rv1, PC-3 and DU145 and cells; 10% FBS/DMEM medium (DMEM medium supplemented with Glutamax^TM-I (gibco® Life technologies^TM) containing 10% FBS and 1% penicillin/streptomycin (gibco® Life technologies^TM)) for MRC-9 and HEK 293 cells. Cells were continuously kept in culture for a maximum of 3 months, and were regularly checked for stable phenotype and mycoplasma infection.
(§3) Effect of the drugs on cell viability in terms of metabolic activity was assessed by MTT assay, as previously reported. Cells were pre-incubated overnight in 96-well plates (6 × 10^3 cells/well in 100 μL/well) in the correspondent culture media. Then, the medium was replaced with fresh 10% FBS/RPMI medium containing the investigated compounds (100 μL/well), and cells were incubated for 48 h, unless otherwise stated. Next, 10 μL/well of (3-(4,5-dimethylthiazol-2-yl)-2,5-diphenyltetrazolium bromide) reagent (MTT, 5 mg/mL) was added. After 2–4 h of incubation, the media was aspirated and the plates were dried. Then, 50 μL/well of DMSO was added to each well and the cell viability was measured using an Infinite F200PRO reader (TECAN, Männedorf, Switzerland). Results were calculated using the GraphPad Prism software v.9.1.1 (GraphPad Software, San Diego, CA, USA) and are represented as IC50 of the compounds calculated using the cells treated with the solvent alone as a control.

MRC-9 cells = experiment: MTT assay, MRC-9 cells; format: cell-based, human; settings: non-cancer cells, 48 h of treatment, mean ± SD
Method: as §1, §2, §3

DU145 cells = experiment: MTT assay, DU145 cells; format: cell-based, human; settings: prostate cancer cells, 48 h of treatment, mean ± SD
Method: as §1, §2, §3

[1] = test system: non-cancer cell lines versus cancer cell lines; experiment: Selectivity index from MTT IC50s; format: cell-based, human; settings: MTT; for Selectivity index, IC50 (non-prostate) / IC50 (prostate): mean IC50 MRC-9 and HEK-293 versus mean IC50 prostate cancer cell lines plus PNT2; for Selectivity index, IC50 (non-cancer) / IC50 (cancer): mean IC50 non-cancer cell lines versus mean IC50 cancer cell lines
Method: as §3, with “Next, SAR analysis was performed to identify the structural elements that are beneficial for anticancer activity of the fascaplysin-related molecules. Considering the complex and heterogeneous nature of tumors even within the same patient, we used calculated mean IC50 values of each drug in all prostate cancer cells for further analysis (Figure 2A). To identify the drug candidates with the highest therapeutic potential, the selectivity index (SI) was calculated as mean IC50 in non-cancer cells versus mean IC50 in cancer cells (Figure 2B), or as a mean IC50 in non-cancer (MRC-9 and HEK293) cells versus mean IC50 in prostate cells (cancer PC-3, 22Rv1, DU145, LNCaP and non-cancer PNT2 cells) (Figure 2C). Finally, to estimate the effects on cellular metabolism, we compared the activity evaluated by using trypan blue assay versus MTT assay (Figure 2D). Effect” for “Effect”, “2-4” for “2–4”, “F200PRO” left out

PNT2 cells = experiment: MTT assay, PNT2 cells; format: cell-based, human; settings: non-cancer cells, 48 h of treatment, mean ± SD
Method: as §1, §2, §3

HEK-293 cells = experiment: MTT assay, HEK-293 cells; format: cell-based, human; settings: non-cancer cells, 48 h of treatment, mean ± SD
Method: as §1, §2, §3

[2] = test system: prostate cancer cell lines (PC-3, 22Rv1, DU145 and LNCaP); experiment: MTT assay, mean over four prostate cancer cell lines; format: cell-based; settings: Homo sapiens; mean of MTT IC50 in PC-3, 22Rv1, DU145 and LNCaP; from Table S1 values; read-out: mean IC50 in cancer cells
Method: as §3, with “Next, SAR analysis was performed to identify the structural elements that are beneficial for anticancer activity of the fascaplysin-related molecules. Considering the complex and heterogeneous nature of tumors even within the same patient, we used calculated mean IC50 values of each drug in all prostate cancer cells for further analysis (Figure 2A). To identify the drug candidates with the highest therapeutic potential, the selectivity index (SI) was calculated as mean IC50 in non-cancer cells versus mean IC50 in cancer cells (Figure 2B), or as a mean IC50 in non-cancer (MRC-9 and HEK293) cells versus mean IC50 in prostate cells (cancer PC-3, 22Rv1, DU145, LNCaP and non-cancer PNT2 cells) (Figure 2C). Finally, to estimate the effects on cellular metabolism, we compared the activity evaluated by using trypan blue assay versus MTT assay (Figure 2D). Effect” for “Effect”, “2-4” for “2–4”, “F200PRO” left out

PC-3 cells = experiment: MTT assay, PC-3 cells; format: cell-based, human; settings: prostate cancer cells, 48 h of treatment, mean ± SD
Method: as §1, §2, §3

[3] = test system: double-stranded calf thymus DNA; experiment: Thiazole orange displacement (DNA intercalation) assay; format: binding; settings: 1 µM calf thymus DNA base pairs, 2 µM thiazole orange; 7 min at room temperature; mean ± SD
Method: DNA intercalation activity of the compounds was calculated as an ability to displace thiazole orange (TO) from the double-stranded DNA. For this experiment, a mixture (100 µL) containing 1 µM of double-stranded calf thymus DNA (recalculated as a concentration of base pairs) and 2 µM of thiazole orange (TO) solved in water was prepared. Then, the investigated compounds were added up to final concentrations of 0.39–25 µM; DMSO concentration in the samples was <0.02%. Propidium iodide (PI, positive control) was added up to final concentrations of 0.039–2.5 uM. After 7 min of incubation at room temperature, TO fluorescence was monitored using a multimodal plate reader TECAN Spark (Tecan Group Ltd., Männedorf Switzerland) at the excitation λ = 480 nm; fluorescence was recorded at λ = 530 nm. The bandwidth was 10 nm. The concentration of the drug that caused a decrease in TO fluorescence by 50% (EC50) was determined by approximating the experimental data using a non-linear regression algorithm and calculated using the GraphPad Prism software v.9.1.1 (GraphPad Software, San Diego, CA, USA).

22Rv1 cells [4] = experiment: MTT assay, 22Rv1 cells; format: cell-based, human; settings: prostate cancer cells, 48 h of treatment, mean ± SD
Method: as §1, §2, §3

22Rv1 cells [5] = experiment: DNA fragmentation (apoptosis, sub-G1), flow cytometry with PI staining; format: cell-based, human; settings: treated at IC50 (MTT assay) for 48 h, mean ± SD
Method: The effects on cell cycle progression and DNA fragmentation were analyzed by flow cytometry using PI staining, as described before. Cells (2 × 10^5 cells/well) were pre-incubated overnight in 6-well plates and then treated with the investigated drugs in fresh culture media (2 mL/well) for 48 h. Cells were harvested by trypsinization, fixed in 70% EtOH, stained with PI solution and analyzed by FACS Calibur (BD Bioscience, San Jose, CA, USA). The results were quantified using BD Bioscience Cell Quest Pro v.5.2.1. software (BD Bioscience). The cells appearing as a sub-G1 population (containing fragmented DNA) were considered to be apoptotic.

22Rv1 cells [6] = experiment: Trypan blue-based viability assay; format: cell-based, human; settings: 48 h of treatment, mean ± SD, read-out: IC50, trypan blue staining assay
Method: The effect of the drugs on cell viability in terms of cellular membrane integrity was evaluated by the trypan blue exclusion assay as described before. In brief, cells (0.2 × 10^6 cells/well) were seeded in 6-well plates and incubated overnight, and the media was replaced with fresh media (1 mL/well) containing drugs at indicated concentrations. After treatment for 48 h, the cells were harvested by trypsinization, stained with trypan blue and the viability was measured using an automatic Beckman Coulter Vi-CELL (Beckman Coulter, Krefeld, Germany). Trypan blue-positive cells were assumed to have damaged cellular membrane (i.e., dead), whereas trypan blue-negative cells were considered to have an intact cellular membrane (i.e., alive).

Row | IC50 (LNCaP cells; Homo sapiens, LNCaP) [nM] | IC50 (DU145 cells; Homo sapiens, DU-145) [nM] | IC50 [2] [nM] | IC50 (PC-3 cells; Homo sapiens, PC-3) [nM] | IC50 (22Rv1 cells [4]; Homo sapiens, 22Rv1) [nM] | % of sub-G1 apoptotic cells (at IC50) (22Rv1 cells [5]) [%] | IC50 (22Rv1 cells [6]; Homo sapiens) [nM] | SMILES | IC50 (MRC-9 cells; Homo sapiens, MRC9) [nM] | Selectivity index, IC50 (non-prostate) / IC50 (prostate) [1] | Selectivity index, IC50 (non-cancer) / IC50 (cancer) [1] | IC50 (PNT2 cells; Homo sapiens, PNT2) [nM] | IC50 (HEK-293 cells; Homo sapiens, HEK293) [nM] | further results
1 | 460 ± 76 | 1270 ± 206 | 5010 | 17800 ± 1940 | 500 ± 67 | 3.63±0.844 | 482 ± 91 | O=C1c2ccccc2-[n+]2ccc3c([nH]c4cc(Br)ccc43)c21 [Compound 5, 10-Bromofascaplysin] | 20300 ± 5400 | 2.57 | 1.41 | 302 ± 90 | 649 ± 78 | EC50 [3]: 2010 ± 10 nM
2 | 1130 ± 803 | 913 ± 116 | 1090 | 1830 ± 100 | 490 ± 39 | 24.0±5.37 | 215 ± 36 | O=C1c2cc(Br)ccc2-[n+]2ccc3c([nH]c4ccc(Br)cc43)c21.[Cl-] [Compound 10, 12,13-dihydro-2,9-dibromo-13-oxopyrido[1,2-a:3,4-b’]diindol-5-ium chloride] | 4960 ± 386 | 2.62 | 1.78 | 614 ± 98 | 250 ± 34 | –
3 | 7630 ± 740 | 13200 ± 4440 | 7690 | 5940 ± 860 | 3980 ± 300 | 27.6±7.52 | 4480 ± 1650 | O=C1c2cc(Br)ccc2-[n+]2ccc3c([nH]c4c(Br)cc(Br)cc43)c21.[Cl-] [Compound 13, 12,13-dihydro-2,9,11-tribromo-13-oxopyrido[1,2-a:3,4-b’]diindol-5-ium chloride] | 30000 ± 5800 | 2.29 | 1.59 | 4380 ± 674 | 2250 ± 990 | –
4 | 2600 ± 367 | 616 ± 94 | 2100 | 2950 ± 230 | 2240 ± 811 | 8.63±0.71 | 2850 ± 487 | O=C1c2ccc(Br)cc2-[n+]2ccc3c([nH]c4ccc(Br)cc43)c21.[Cl-] [Compound 15, 12,13-dihydro-3,9-dibromo-13-oxopyrido[1,2-a:3,4-b’]diindol-5-ium chloride] | 12600 ± 6940 | 3.56 | 2.15 | 643 ± 49 | 275 ± 21 | –
5 | 803 ± 80 | 1790 ± 478 | 1110 | 1070 ± 550 | 790 ± 38 | 23.1±3.42 | 472 ± 185 | Cc1c[n+]2c(c3[nH]c4ccccc4c13)C(=O)c1ccccc1-2.[Cl-] [Compound 18, 12,13-dihydro-7-methyl-13-oxopyrido[1,2-a:3,4-b’]diindol-5-ium chloride] | 1180 ± 96 | 0.82 | 0.82 | 956 ± 92 | 590 ± 85 | –
6 | – | – | – | – | – | – | – | CC[N+](C)(CC)CCC[n+]1c(-c2ccccc2)c2cc(N)ccc2c2ccc(N)cc21 [PI, propidium iodide, reference compound] | – | – | – | – | – | EC50 [3]: 4 ± 0.5 nM
7 | 1170 ± 84 | 1350 ± 318 | 2000 | 3140 ± 980 | 2330 ± 870 | 13.1±2.86 | 1330 ± 277 | O=C1c2cc(Br)ccc2-[n+]2ccc3c([nH]c4ccc(I)cc43)c21.[Cl-] [Compound 11, 12,13-dihydro-2-bromo-9-iodo-13-oxopyrido[1,2-a:3,4-b’]diindol-5-ium chloride] | 31900 ± 7070 | 9.15 | 5.55 | 860 ± 72 | 480 ± 52 | –

Row | SMILES | IC50 (LNCaP cells; Homo sapiens, LNCaP) [nM] | IC50 (DU145 cells; Homo sapiens, DU-145) [nM] | IC50 [2] [nM] | IC50 (PC-3 cells; Homo sapiens, PC-3) [nM] | IC50 (22Rv1 cells [4]; Homo sapiens, 22Rv1) [nM] | % of sub-G1 apoptotic cells (at IC50) (22Rv1 cells [5]) [%] | IC50 (22Rv1 cells [6]; Homo sapiens) [nM] | IC50 (MRC-9 cells; Homo sapiens, MRC9) [nM] | Selectivity index, IC50 (non-prostate) / IC50 (prostate) [1] | Selectivity index, IC50 (non-cancer) / IC50 (cancer) [1] | IC50 (PNT2 cells; Homo sapiens, PNT2) [nM] | IC50 (HEK-293 cells; Homo sapiens, HEK293) [nM] | further results
8 | N.N.[Cl][Pt][Cl] [Cis, Cisplatin, reference compound] | – | – | – | – | – | 14.7±3.43 | – | – | 0.92 | 1.23 | – | – | IC50 (LNCaP cells): 2750 ± 550 nM; IC50 (MRC-9 cells): 6750 ± 1990 nM; IC50 (DU145 cells): 1320 ± 530 nM; IC50 (PNT2 cells): 9410 ± 3120 nM; IC50 (HEK-293 cells): 6440 ± 1770 nM; IC50 (PC-3 cells): 34600 nM; IC50 (22Rv1 cells [4]): 990 ± 290 nM; IC50 (22Rv1 cells [6]): 190 ± 44 nM
